Results on 1 compound are retold here after patent US20250090507A1, “Methods of Treating Cancer With a B-RAF Inhibitor” (MapKure, LLC, priority 2022, published 2025).

Each structure is given as a SMILES string.

Data set [1] relates to circulating tumor DNA. As to the kind of experiment: Circulating tumor DNA variant allele frequency in melanoma pts. In kind it is in vivo, human. The following applies: ctDNA, subset of melanoma pts. From the text:
Peripheral blood samples were collected at specified timepoints as described in the schedule of assessments to be used for the longitudinal evaluation ctDNA by molecular (NGS) methodologies as pharmacodynamic biomarkers associated with response or resistance.

The nature of data set [2]: Solubility of the solid form. In kind it is physicochemical. The note with it: Form I.

For the compound `O=C1CCc2c(Oc3ccc4c(c3)[C@H]3[C@H](NC(=O)Nc5cc(F)c(F)cc5F)[C@H]3O4)ccnc2N1` [Compound A, 1-((1S,1aS,6bS)-5-((7-oxo-5,6,7,8-tetrahydro-1,8-naphthyridin-4-yl)oxy)-1a,6b-dihydro-1H-cyclopropa[b]benzofuran-1-yl)-3-(2,4,5-trifluorophenyl)urea], the “maximum reduction of VAF, range” value in data set [1] was 98.7-99.9%. The “maximum reduction of variant allele frequency (VAF) of detected mutations” value in data set [1] (across evaluated subjects) was determined as 99.3%. Further, the Solubility result is on record as “high solubility” in data set [2] (in dimethyl sulfoxide (DMSO) and dimethylacetamide (DMA)); “Low solubility” in data set [2] (in water).
